Patent US12428412B2 (DANA-FARBER CANCER INSTITUTE, INC., priority 2018, dated 2025)

Key:
[1] = target: cereblon (CRBN) (Homo sapiens, UniProt Q96SW2); test: AlphaScreen assay, cereblon (CRBN); type: binding
Description: An AlphaLISA® assay for EP300 catalytic function (FIG. 3B) and an AlphaScreen™ assay for EP300 bromodomain and cereblon (CRBN) using biotinylated tagged small molecules as a probe for EP300 bromodomain and CRBN, respectively, were developed (FIG. 3C).
AlphaScreen™ assay was used to determine the binding of inventive degrader compound toward both CRBN and HAT domain.

[2] = In vivo study blood analysis; conditions: mice, after 14 days
Description: Blood samples were taken from mice treated daily with 40 mpk intraperitoneal injection (IP) after 14 days.

[3] = tested on: NB zebra fish model; test: NB zebra fish model; type: in vivo
Protocol: (§1) Maximum tolerance dose (MTD) of each candidate was determined in zebrafish embryos. 3-day-old zebrafish embryos were exposed to different drug concentrations and monitored for adverse health effects. […] Experiments were first carried out with compound CPD 1 as a guide in the further design of MTD assessment of lead EP300 degraders (FIG. 6B). The MTD of the degrader is also determined in mice in the similar manor. Briefly, mice were dosed with test compounds and blood and plasma is isolated at specific intervals post-administration (0.083, 0.25, 0.5, 1, 2, 4, 8, 12, and 24 h) and quantified for the presence of test article by LC/MS/MS (n=5 mice/compound). In vivo mouse PK experiments were used to determine these parameters and inform iterative rounds of medicinal chemistry for optimization of EP300 degraders (FIG. 6A). As degraders have a relatively large molecular weight, the proper formulation is investigated to increase the solubility and stability of the degraders for in vivo study. Together, these parameters, including the established MTD, are used to guide the in vivo study design, such as administration method, dosing, and schedule for the following experiment. The information obtained was also used to guide the degrader optimization conducted in Example 36.

[4] = target: T1, HAT (EP300) domain (Homo sapiens, UniProt Q09472); test: AlphaScreen assay, HAT (EP300) domain; type: binding
T1 sequence (Q09472 1287-1663 limits assumed): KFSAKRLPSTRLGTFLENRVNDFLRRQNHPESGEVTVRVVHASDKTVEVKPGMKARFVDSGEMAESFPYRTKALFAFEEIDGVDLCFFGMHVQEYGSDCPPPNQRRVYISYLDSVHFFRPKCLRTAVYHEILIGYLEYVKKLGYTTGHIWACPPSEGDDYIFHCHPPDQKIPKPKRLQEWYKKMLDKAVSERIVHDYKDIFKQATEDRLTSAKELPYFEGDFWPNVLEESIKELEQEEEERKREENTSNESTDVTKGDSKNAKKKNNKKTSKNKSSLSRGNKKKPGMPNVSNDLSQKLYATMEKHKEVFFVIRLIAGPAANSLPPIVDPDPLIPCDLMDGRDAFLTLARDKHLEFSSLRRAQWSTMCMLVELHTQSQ
Protocol: The AlphaScreen™ assay was performed in 384-well plate format using white AlphaPlate (PerkinElmer®, USA), and transfer of pre-diluted compound (100 nL) was performed using a Janus Workstation (PerkinElmer®, USA). All subsequent steps were carried out in assay buffer (50 mM 4-(2-hydroxyethyl)-1-piperazineethanesulfonic acid (HEPES), pH 7.5, 0.1% (wt/vol) bovine serum albumin (BSA) and 0.01% (vol/vol) Tween-20). In brief, 10 μL of assay buffer containing enzyme (2 nM Final) was pre-incubated for 15 min with dilutions of compound. The enzyme reaction was initiated by the addition of substrate (5 μL) consisting of acetyl Co-A 2-OG (5 μM Final).
FAS final concentration was 10 μM. Histone tail-GGK Biotin final concentration was 100 nM Final. The enzyme reaction was allowed to proceed for 30 minutes and was stopped by the addition of 5 μL of assay buffer containing ethylenediaminetetraacetic acid (EDTA) (40 mM) and NaCl (1200 mM). The final concentration of dimethyl sulfoxide (DMSO) was 1%. Streptavidin donor beads (0.08 mg/mL) and protein-A-conjugated acceptor beads (0.08 mg/mL) were preincubated for 1 h with antibody to methyl mark (300 ng/mL Final), and the presence of histone H3 product acetylation mark was detected using the preincubated AlphaScreen™ beads (5 μL). Detection was allowed to proceed for 2 hours at rt, and the assay plates were read on the Envision™ 2104 plate reader. Data were normalized to the (no-enzyme) control, and the IC50 values were determined via nonlinear regression curve fit using GraphPad Prism (FIG. 4E-FIG. 4H).
AlphaScreen™ assay was used to determine the binding of inventive degrader compound toward both CRBN and HAT domain. The experimental protocol is the same as in Example 26.

[5] = Mouse PK after intraperitoneal injection, blood concentration by LCMS/MS; type: in vivo; conditions: IP 10 mg/kg, male CD1 mice
Protocol: The compound concentration in animal blood was measured by LCMS/MS through a series bleeding at different time points. […] A-485 half life is 0.7 h in mice.
as §1

[6] = tested on: Kelly cells; test: Colony formation assay, Kelly cells; type: cell-based; conditions: 10 days
Description: The experimental method for the colony formation assay is as described in Durbin et al., Nat Genet. 50(9):1240-60 (2018).

[7] = tested on: Kelly cell lines xenograft; test: Xenograft model of Kelly cell lines; type: in vivo; conditions: 40 mpk IP from day 10
Description: The xenograft model of Kelly cell lines was used to assess the in vivo efficacy. The Kelly cells were implanted 2 M into animals. The treatment started with day 10 at 40 mpk IP.

[8] = Tolerability in human CRBN knock in mice; type: in vivo
Protocol: CPD 1 was tested in mice for maximum tolerated dose (MTD) (FIG. 6A). The mice were treated with 10 mg/kg (mpk), 20 mpk, and 40 mpk with 4 mice in each group. The compound was also tested in human CRBN knock in mice, the blood samples were collected after 21 day treatment. All the tested blood samples were normal.

cereblon (CRBN), sequence (Q96SW2 whole entry): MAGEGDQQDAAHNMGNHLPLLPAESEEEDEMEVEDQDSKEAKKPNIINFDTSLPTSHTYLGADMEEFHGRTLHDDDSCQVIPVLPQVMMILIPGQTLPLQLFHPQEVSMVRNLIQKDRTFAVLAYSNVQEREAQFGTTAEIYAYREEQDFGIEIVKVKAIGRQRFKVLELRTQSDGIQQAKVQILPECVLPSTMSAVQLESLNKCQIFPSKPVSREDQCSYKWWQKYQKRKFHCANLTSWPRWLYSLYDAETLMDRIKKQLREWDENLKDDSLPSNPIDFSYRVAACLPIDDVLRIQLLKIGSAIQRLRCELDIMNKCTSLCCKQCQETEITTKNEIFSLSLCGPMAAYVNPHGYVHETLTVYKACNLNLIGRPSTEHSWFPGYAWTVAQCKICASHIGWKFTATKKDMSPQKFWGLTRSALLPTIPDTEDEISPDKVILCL

Q: With C[C@H](N(Cc1ccc(F)cc1)C(=O)CN1C(=O)O[C@@]2(CCc3cc(NC(=O)CCCCCCCCCCCNc4ccc5c(c4)C(=O)N(C4CCC(=O)NC4=O)C5=O)ccc32)C1=O)C(F)(F)F (stereo partly drawn) [CPD 1, 12-((2-(2,6-dioxopiperidin-3-yl)-1,3-dioxoisoindolin-5-yl)amino)-N—((R)-3′-(2-((4-fluorobenzyl)((S)-1,1,1-trifluoropropan-2-yl)amino)-2-oxoethyl)-2′,4′-dioxo-2,3-dihydrospiro[indene-1,5′-oxazolidin]-5-yl)dodecanamide] as the compound, how does the “binding to cereblon (CRBN)” value [1] read?
A: bound and bind

Q: And the ALP ([2]; 40 mg/kg IP daily)?
A: 51 U/L

Q: And the ALT ([2]; 40 mg/kg IP daily)?
A: 54 U/L

Q: And the AST ([2]; 40 mg/kg IP daily)?
A: 37 U/L

Q: And the Albumin ([2]; 40 mg/kg IP daily)?
A: 3.2 g/dL

Q: And the Basophils ([2]; 40 mg/kg IP daily)?
A: 0.02 K/μL

Q: And the Creatinine ([2]; 40 mg/kg IP daily)?
A: 0.17 mg/dL

Q: And the Eosinophils ([2]; 40 mg/kg IP daily)?
A: 0.10 K/μL

Q: And the GGTP ([2]; 40 mg/kg IP daily)?
A: 5

Q: And the Hematocrit ([2]; 40 mg/kg IP daily)?
A: 41.2%

Q: What about the Hemoglobin ([2]; 40 mg/kg IP daily) of the same compound?
A: 13.35 g/dL

Q: What about the Lymphocytes ([2]; 40 mg/kg IP daily) of the same compound?
A: 1.80 K/μL

Q: And the Monocytes ([2]; 40 mg/kg IP daily)?
A: 0.35 K/μL

Q: And the Neutrophils ([2]; 40 mg/kg IP daily)?
A: 1.2 K/μL

Q: What about the Platelet ([2]; 40 mg/kg IP daily) of the same compound?
A: 528 K/μL

Q: What about the WBC ([2]; 40 mg/kg IP daily) of the same compound?
A: 3.46 K/μL

Q: What about the “toxicity by blood sample measurements” value ([2]; 40 mpk IP daily) of the same compound?
A: not toxic

Q: And the tumor growth inhibition ([3]; NB zebra fish model, 0.25 μM and 0.5 μM)?
A: tumor growth inhibition

Q: What about the “toxicity in zebra fish study” value ([3]; zebra fish) of the same compound?
A: No toxicity was observed

Q: And the “binding to HAT (EP300) domain” value [4]?
A: bound and bind

Q: What about the “toxicity in PK study” value [5] of the same compound?
A: No toxicity was observed

Q: What about the Cmax ([5]; mouse, whole blood, n=3) of the same compound?
A: 5 µM

Q: And the half-life ([5]; mouse, whole blood, n=3)?
A: 13 h

Q: What about the “Kelly cell growth, colony formation” value [6] of the same compound?
A: inhibited the Kelly cell growth in a dose dependent manner

Q: And the survival of animals [7]?
A: extended the survival of animals

Q: And the tumor progression [7]?
A: reduced tumor progression

Q: And the blood samples ([8]; human CRBN knock in mice, after 21 day treatment)?
A: normal

Q: And the toxicity ([8]; humanized CRBN mice)?
A: no toxicity was observed
